Reference: patent US20250144131A1, “POLYSACCHARIDE COMPOUND WITH A DEFINED MOLECULAR STRUCTURE FOR THE TREATMENT OF PULMONARY FIBROSIS” (SHENZHEN YANDAI INVESTMENT CO., LTD, priority 2023, published 2025)
Marks after values point to notes of the source that are not given here.

Key:
[1] = design: species or system C57 mice; conditions: mouse, in vivo, 130 mg/kg
Method: Spleen and thymus organ coefficients: After the last dose, spleen, thymus, and tumor weights are measured, and organ coefficients are calculated. organ coefficient (%)=organ weight/fasting body weight×100%.

[2] = Mortality and body weight of 4T1 breast tumor-bearing mice; type: in vivo, BALB/c mice
Method: A suspension of 4T1 breast cancer cells was injected subcutaneously into the left shoulder back of 55 healthy female BALB/c mice to create solid tumor models. When the mean tumor volume reached approximately 240 mm^3, the mice were randomized into groups based on tumor volume, and were administered the respective drugs or drug solvents via oral gavage or intraperitoneal injection over 25 consecutive days. Longest and shortest diameters of tumors were measured every three days to calculate tumor volume, and mouse weights were recorded every three days. At the end of the experiment, tumors, spleens, and thymuses were harvested and weighed to calculate tumor, spleen, and thymus indices.

## N.N.[Cl][Pt][Cl] [Cisplatin, cisplatin]
[1]
  Spleen coefficient: 0.456 ± 0.102 ^ %
  Thymus coefficient: 0.044 ± 0.020 %
[2]; 10 per group, cisplatin 4 mg/kg
  Number of deaths: 0
[2]; 25 days of dosing, cisplatin 4 mg/kg
  Survival time: 25 ± 0 days
[2]; D0, cisplatin 4 mg/kg
  Weight: 18.3 ± 1.3 g
[2]; D3, cisplatin 4 mg/kg
  Weight: 17.7 ± 1.1 g
[2]; D6, cisplatin 4 mg/kg
  Weight: 15.5 ± 1*^ g
[2]; D9, cisplatin 4 mg/kg
  Weight: 15 ± 1.4 g
[2]; D12, cisplatin 4 mg/kg
  Weight: 13.8 ± 0.9 g
[2]; D15, cisplatin 4 mg/kg
  Weight: 15 ± 1.1 g
[2]; D19, cisplatin 4 mg/kg
  Weight: 16.8 ± 1.4 g
[2]; D22, cisplatin 4 mg/kg
  Weight: 18 ± 1.5 g
[2]; D25, cisplatin 4 mg/kg
  Weight: 18.1 ± 1.6 g
[2]; cisplatin 4 mg/kg
  Mortality rate: 0.0%
